Data: US10953113B2, “Imaging agents and methods of use” (The Board of Regents of the University of Oklahoma, priority 2016, dated 2021)
“Also recorded” adds a separate entry of the source.

Legend:
[1] = tested on: ISO-induced myocardial injury; assay: PET/SPECT imaging in rat model of ISO-induced myocardial damage; type: in vivo, Sprague Dawley rats; details: for Delineation of ISO-induced myocardial pathology by imaging: control vs ISO-treated rats
Protocol: (§1) Male Sprague Dawley rats (250-300 g) were purchased from Harlan (Indianapolis, Ind., USA), housed in regular light/dark cycles and allowed to acclimatize for at least 5 days prior to the experiments. Myocardial injury was induced by administering a sterile aqueous solution of ISO at a dose rate of 150 mg/kg bodyweight. The drug was intraperitoneally injected on two consecutive days.
In addition to the post-injury imaging, baseline images were also acquired before inducing ISO-injury. […] All injections were given intravenously in the tail vein of anesthetized (2% isoflurane-oxygen mixture) rats and imaging was performed at indicated times after the injections. Through the imaging period, anesthesia was maintained with a 2% isoflurane-oxygen mixture. For PET, the rats were positioned supine in a gantry of a PET-CT dual modality machine (Gamma Medica Ideas, Northridge, Calif.). A fly-mode CT of thoracic region was acquired before a 20 min list mode PET data acquisition. SPECT imaging was performed on a NanoSPECT machine (Trifoil Imaging, Chatsworth, Calif.) by helical SPECT acquisition of the thoracic region in 24 frames of 60 seconds each. After imaging, the rats were allowed to wake up and kept in their cage until the time of euthanasia.
The acquired PET images was reconstructed by filtered back projection algorithm and fused with the CT to generate a composite PET-CT image. SPECT acquisitions were reconstructed with HiSPECT reconstruction algorithm provided with the system.
Standard uptake value (SUV) was calculated by defining a three-dimensional region of interest (ROI) around the heart using the CT image. Background was determined by placing a spherical ROI at the same level as the 4th sternebrae in the XY plane in the posterior medial area of the left lung. Mean counts per voxel for the heart were normalized to mean background counts per voxel.

[2] = Circulation kinetics of ^18F-FGA in mice; type: in vivo, CD-1 mice; details: i.v., elimination phase, 30-180 minute time points
Protocol: Five male CD-1 mice were injected with 100 μCi of ^18F-FGA intravenously via the tail vein. At 0, 30, 60, 90, 120, and 180 minutes post injection, 25-50 μl of blood was sampled from the retro-orbital sinus. Blood was weighed and counted in an automated gamma counter (Packard Cobra II Auto Gamma, Perkin Elmer, Boston, Mass.). One mouse was excluded from the study based on macroscopic observations about the abnormal kidney morphology upon necropsy.
For statistical comparisons we employed GraphPad Prism 6 Software (GraphPad, La Jolla, Calif.). Two group comparisons were performed using a Student's T Test, comparisons between 3 or more groups were done using one way ANOVA. Pharmacokinetic parameters were calculated from the semi-log plot of time-activity curves using method of residuals.
Circulation kinetics of ^18F-FGA was studied over the course of 3 h. As shown in FIG. 6 (left panel), by 30 min, more than 99% of the injected dose was removed from circulation. […] Pharmacokinetic parameters were calculated from the 30-180 minute time points and are presented in tabular form (FIG. 6, right panel).

[3] = Biodistribution of ^18F-FGA in normal mice; type: in vivo, CD1 mice; details: for Biodistribution, Blood / Biodistribution, Bone / Biodistribution, Brain / Biodistribution, Heart / Biodistribution, Kidney / Biodistribution, Liver / Biodistribution, Lung / Biodistribution, Muscle / Biodistribution, Spleen: i.v. 0.1 mCi, decay-corrected, mean ± SD
Protocol: All animal work described herein was performed according to the NIH Animal Use and Care Guidelines and was approved by the institutional IACUC. Nine male and three female CD1 mice (20-36 g) were obtained from Harlan Laboratories (Indianapolis, Ind.), and housed in a controlled environment with 12 h day/night cycle. The mice were allowed to acclimatize for at least 1 week before inclusion in the study. On the day of imaging, the animals were anesthetized with 2-3% isoflurane in oxygen stream. Approximately 100 μCi of ^18F-FGA was injected intravenously in the tail vein. The animals were placed in a cage with absorbent padding until biodistribution. Briefly, the mice were euthanized after 1 or 3 hours post injection by an over-dose of isoflurane (4%) followed by cervical dislocation. Various organs were excised, washed with saline, weighed, and appropriate tissue samples were counted in an automated gamma counter (Packard Cobra II Auto Gamma, Perkin Elmer, Boston, Mass.). Total blood volume, bone, and muscle mass were estimated as 5.7%, 10% and 40% of body weight, respectively. A diluted sample of injected ^18F-FGA served as a standard for comparison.
Results of a whole body distribution analysis of ^18F-FGA in various organs of normal mice 1 and 3 h after injection are shown in Table 1. Normal healthy mice were injected with ^18F-FGA (0.1 mCi) via the tail vein and the mice were euthanized at 1 h and 3 h post injection. […] All other organs accumulated less than 0.5% of the injected dose/g tissue. The concentration of ^18F-FGA in circulation was also negligible.
We injected 0.1 mCi (50 μl) of ^18F-FGA in normal healthy mice (n=8), and collected organs for counting at 1 h post-injection. The accumulation in the brain was less than about 0.1% and in all major organs was below 0.5% of the injected dose and it cleared via renal system. […] Rapid clearance and absence of accumulation in healthy cerebral tissue indicated effectiveness of ^18F-FGA for clear infarct imaging.

[4] = tested on: infarct region in brain (MCAO); assay: PET/SPECT imaging in middle cerebral artery occlusion (MCAO) mouse model of brain stroke; type: in vivo; details: for Uptake in stroke regions: MCAO mouse model, FIG. 13, PET or SPECT
Protocol: Fasted mice are anesthetized with 1.5% isoflurane in a stream of O2:N2 mixture (30:70, 1 L/min) and blanketed in a thermostatic blanket at 37° C. […] The common carotid artery is occluded by a micro-clip. The left ECA is ligated, coagulated, and cut distal to the cranial thyroid artery. A 15 mm monofilament nylon suture (6-0, dia of heat-rounded tip=0.2-0.3 mm) is inserted into the ECA and gently advanced through the ICA until its tip has occluded the origin of the MCA. Correct placement of the suture is indicated by a sudden drop of the local cortical blood flow in the left MCA territory to 10-20% of basal flow. CBF is monitored by non-invasive laser Doppler flowmetry (Moor Instruments). A sustained reduction of >80% is indicative of successful MCAO. The monofilament is secured in place with a ligature and the skin incision is closed. The monofilament suture is left in place for permanent MCAO, but for transient MCAO, the occluding suture is removed after 1 h by anesthetizing the mouse and re-opening the wound.
^18F-FGA was found, in the present work, to accumulate in the brain of a mouse model of brain stroke created by middle cerebral artery occlusion (MCAO). To test ^18F-FGA for imaging infarct in brain, we employed a mouse model of permanent MCAO. PET was performed after 2 h of MCAO surgery. Approximately 1 mCi of ^18F-FGA was injected (i.v.) and a 20 min image was acquired after 1 h of injection. […] We also performed 1 day post-MCAO imaging of brain excised after 2 h of ^18F-FGA injection.

rats = assay: ISO-induced myocardial injury in rats (ECG, cardiac troponin I, corticosterone, TTC staining); type: in vivo, Sprague Dawley rats
Protocol: as §1
Lead 1 ECG of isoflurane-anesthetized rats was recorded by placing negative electrode on the right front paw, positive electrode on the left front paw, and ground lead on to the left hind paw. The electrodes were secured to the lead (CB Sciences C-ISO-255), bioamplifier (ETH-225), and analog to digital converter (iWorx 118) and the signal was recorded using Labscribe 2.0 software (iWorx, Dover, N.H.). Before analysis of raw data, the signal was filtered to eliminate 60 Hz mains frequency.
Blood samples were collected before euthanasia and plasma was separated by centrifugation (5,000 rpm for 5 min). We determined the levels of cardiac TnI (cTnI) in plasma by using a rat-specific enzyme-linked immunoassay kit obtained from Life Diagnostics (West Chester, Pa.). The plasma samples were diluted 1:2 with PBS before estimation.
We measured the concentration of stress hormone corticosterone in undiluted plasma by using an ELISA kit from Cayman Chemicals (Ann Arbor, Mich.). Corticosterone is the only glucocorticoid present in rats.
After the final session of imaging and blood sample collection, the rats were euthanized and their hearts were immediately collected and frozen at −20° C. for 2 h. The hearts were sectioned into 2 mm slices and placed in 1% solution of TTC in PBS at 37° C. with intermittent shaking. After 30 min of staining, the TTC was removed and replaced with 10% buffered fomialin overnight.

[5] = normal healthy mice (n=8), 0.1 mCi, 1 h post-injection
[6] = normal mice, 1 and 3 h after injection

O=C(O)[C@@H](O)[C@@H](O)[C@H](O)[C@@H]([18F])C(=O)O [^18F-FGA, 2-deoxy-2-[^18F]fluoroglucaric acid]
Accumulation in cardiac tissue of ISO-treated rats ([1]; PET, 1 h post-injection, after two consecutive days of ISO): accumulated large amounts | Time to accumulation in ISO-treated hearts ([1]; PET, ISO-treated rats): ≤ 1 h | Contrast between accumulation in myocardial tissue and non-target tissues ([1]; PET, ISO-treated rats, 4 h post-injection): very pronounced | Uptake in normal (baseline/control) heart ([1]; PET, rats without ISO treatment): negligible uptake; also recorded: no detectable signal | Delineation of ISO-induced myocardial pathology by imaging [1]: clearly diagnosed ISO-induced cardiomyopathy | Elimination rate constant [2]: 0.83 h⁻¹ | Half-life [2]: approximately 35 minutes | Accumulation in all major organs [3, 5]: below 0.5 % of the injected dose | Accumulation in the brain [3, 5]: less than 0.1 % of the injected dose | Accumulation in all other organs (other than renal system) [3, 6]: less than 0.5 % of the injected dose/g tissue | Concentration in circulation [3, 6]: negligible | Fate of the majority of injected radioactivity [3, 6]: excreted via the renal system | Biodistribution, Blood ([3]; normal mice, 1 hour (n = 8)): 0.145 ± 0.095 % ID/g tissue | Biodistribution, Bone ([3]; normal mice, 1 hour (n = 8)): 0.321 ± 0.128 % ID/g tissue | Biodistribution, Brain ([3]; normal mice, 1 hour (n = 8)): 0.039 ± 0.027 % ID/g tissue | Biodistribution, Heart ([3]; normal mice, 1 hour (n = 8)): 0.056 ± 0.027 % ID/g tissue | Biodistribution, Kidney ([3]; normal mice, 1 hour (n = 8)): 4.226 ± 3.281 % ID/g tissue | Biodistribution, Liver ([3]; normal mice, 1 hour (n = 8)): 0.417 ± 0.128 % ID/g tissue | Biodistribution, Lung ([3]; normal mice, 1 hour (n = 8)): 0.192 ± 0.087 % ID/g tissue | Biodistribution, Muscle ([3]; normal mice, 1 hour (n = 8)): 0.049 ± 0.025 % ID/g tissue | Biodistribution, Spleen ([3]; normal mice, 1 hour (n = 8)): 0.074 ± 0.036 % ID/g tissue | Biodistribution, Blood ([3]; normal mice, 3 hour (n = 4)): 0.051 ± 0.025 % ID/g tissue | Biodistribution, Bone ([3]; normal mice, 3 hour (n = 4)): 0.727 ± 0.773 % ID/g tissue | Biodistribution, Brain ([3]; normal mice, 3 hour (n = 4)): 0.014 ± 0.007 % ID/g tissue | Biodistribution, Heart ([3]; normal mice, 3 hour (n = 4)): 0.018 ± 0.01 % ID/g tissue | Biodistribution, Kidney ([3]; normal mice, 3 hour (n = 4)): 0.698 ± 0.378 % ID/g tissue | Biodistribution, Liver ([3]; normal mice, 3 hour (n = 4)): 0.087 ± 0.027 % ID/g tissue | Biodistribution, Lung ([3]; normal mice, 3 hour (n = 4)): 0.104 ± 0.073 % ID/g tissue | Biodistribution, Muscle ([3]; normal mice, 3 hour (n = 4)): 0.03 ± 0.018 % ID/g tissue | Biodistribution, Spleen ([3]; normal mice, 3 hour (n = 4)): 0.033 ± 0.015 % ID/g tissue | Ipsilateral vs contralateral accumulation in excised brain ([4]; 1 day post-MCAO, brain excised 2 h after injection): higher accumulation in the ipsilateral side than the contralateral side | Uptake in stroke regions [4]: accumulates in stroke regions of ipsilateral cerebral hemisphere | Accumulation in ipsilateral side of brain ([4]; permanent MCAO, PET after 2 h of MCAO, 1 mCi i.v., image 1 h after injection): central area of ^18F-FGA accumulation

[C-]#[N+]CC(C)(C)OC.[C-]#[N+]CC(C)(C)OC.[C-]#[N+]CC(C)(C)OC.[C-]#[N+]CC(C)(C)OC.[C-]#[N+]CC(C)(C)OC.[C-]#[N+]CC(C)(C)OC.[Tc] [^99mTc-Sestamibi, ^99mTc-sesta-methoxyisobutylisonitrile, reference compound]
Delineation of ISO-induced myocardial pathology by imaging [1]: unable to delineate ISO-induced myocardial pathology

CC(C)NCC(O)c1ccc(O)c(O)c1 (stereo not shown) [ISO, isoproterenol]
Cardiac troponin in plasma (rats; ISO-treated rats (n=4), 150 mg/kg i.p. on two consecutive days, plasma 24-48 hours after ISO): 63 pg/mL | Plasma level of corticosterone (rats; ISO-treated rats (n=6), 150 mg/kg i.p. on two consecutive days): 34.1 ng/mL | Heart histology (Evans blue, TTC staining) (rats; rats, after two consecutive days of ISO injection): generalized and extensive necrosis | ST duration (ECG) (rats; rats, over the course of ISO treatment): increased | R-R interval (ECG) (rats; rats, same day of ISO treatment): significantly decreased

C/C(=N\[O-])[C@@H](C)[N-]CC(C)(C)C[N-][C@H](C)/C(C)=N/O.[O]=[99Tc+3] (racemic) [HMPAO, reference compound]
Uptake in stroke regions [4]: deficient uptake in stroke regions
